Measurements reported in patent US7501406B2, “Fluoro substituted 2-oxo-azepan derivatives” (Hoffmann-La Roche Inc., priority 2005, dated 2009).

Biological target: γ-secretase (Homo sapiens, UniProt P49768)
Test: in vitro assay of γ-secretase activity (HEK293 membrane fraction, recombinant APP substrate, Abeta ELISA)
Assay type: biochemical
Details: γ-secretase inhibition; HEK293 membrane fraction as source of γ-secretase, recombinant C-terminal 100 amino acids of human APP as substrate, Abeta detected by ELISA
From the text: Description of γ-secretase Assay
The activity of test compounds can be evaluated in assays which measure the proteolytic cleavage of suitable substrates by γ-secretase activity. These can be cellular assays where e.g., a substrate of γ-secretase is fused in its cytoplasmic domain to a transcription factor. Cells are transfected with this fusion gene and a reporter gene, e.g., firefly luciferase, which expression is enhanced by the transcription factor. Cleavage of the fused substrate by γ-secretase will lead to expression of the reporter gene which can be monitored in appropriate assays. The γ-secretase activity can also be determined in cell-free in vitro assays where e.g., a cell lysate containing the γ-secretase complex is incubated with a suitable APP-derived substrate which is cleaved to the Abeta peptides. The amount of produced peptides can be determined with specific ELISA assays. Cell lines of neuronal origin secrete Abeta peptides which can be measured with the specific ELISA assay. Treatment with compounds which inhibit γ-secretase leads to a reduction of secreted Abeta thus providing a measure of inhibition.
The in vitro assay of γ-secretase activity uses a HEK293 membrane fraction as a source of γ-secretase and a recombinant APP substrate. The latter consists of the C-terminal 100 amino acids of human APP fused to a 6×Histidin tail for purification which is expressed in E. coli in a regulatable expression vector, e.g. pEt15. This recombinant protein corresponds to the truncated APP fragment which results after […] of the extracellular domain and which constitutes the γ-secretase substrate. The assay principle is described in Li Y M et al, PNAS 97(11), 6138-6143 (2000). Hek293 cells are mechanically disrupted, and the microsomal fraction is isolated by differential centrifugation. The membranes are solubilized in detergent (0.25% CHAPSO) and incubated with the APP substrate. The Abeta peptides which are produced by γ-secretase cleavage of the substrate are detected by specific ELISA assays as described (Brockhaus M et al, Neuroreport 9(7), 1481-1486 (1998).
The preferred compounds show a IC50<10 nM. In the list below are described some data to the γ-secretase inhibition: […]

Row | Compound | IC50
1 | COc1ccc(CN([C@@H]2CC(F)(F)CCNC2=O)S(=O)(=O)c2ccc(Cl)cc2)c(F)c1F [Example 4, 4-Chloro-N-(2,3-difluoro-4-methoxy-benzyl)-N-((R)-5,5-difluoro-2-oxo-azepan-3-yl)-benzenesulfonamide] | 2 nM
2 | O=C1NCCC(F)(F)C[C@H]1N(Cc1ccc(-c2ncn[nH]2)cc1F)S(=O)(=O)c1ccc(Cl)cc1 [Example 12, 4-Chloro-N-((R)-5,5-difluoro-2-oxo-azepan-3-yl)-N-[2-floro-4-(2H-[1,2,4]triazol-3-yl)-benzyl]-benzenesulfonamide] | 6 nM
3 | O=C(NC1CC1)c1ccc(CN([C@@H]2CCC(F)(F)CNC2=O)S(=O)(=O)c2ccc(Cl)cc2)cc1 [Example 13, 4-{[(4-Chloro-benzenesulfonyl)-((R)-6,6-difluoro-2-oxo-azepan-3-yl)-amino]-methyl}-N-cyclopropyl-benzamide] | 297 nM
4 | COc1ccc(CN([C@@H]2CC(F)(F)CCNC2=O)S(=O)(=O)CCC(F)(F)F)cn1 [Example 16, 3,3,3-Trifluoro-propane-1-sulfonic acid ((R)-5,5-difluoro-2-oxo-azepan-3-yl)-(6-methoxy-pyridin-3-ylmethyl)-amide] | 150 nM
5 | COc1ccc(CN([C@@H]2CC(F)(F)CCNC2=O)S(=O)(=O)c2ccc(Cl)s2)cn1 [Example 17, 5-Chloro-thiophene-2-sulfonic acid ((R)-5,5-difluoro-2-oxo-azepan-3-yl)-(6-methoxy-pyridin-3-ylmethyl)-amide] | 110 nM
